According to ChEMBL document CHEMBL2385047, “Synthesis and antifungal evaluation of pentyloxyl-diphenylisoxazoloyl pneumocandins and echinocandins” (Bioorg Med Chem Lett, 2013):
pIC50: −log10 of the molar value. In brackets after ≈: the same amount, converted by molar mass. Numbered stars: 1 amine (or outer) side, 2 acyl side, 3 side chain; on linkers, the order of the positions; unused ones are H or OH. Bridge positions count the residues as written; N and C are the ends. Square brackets hold non-standard residues; d marks the D form. Peptide text beside a SMILES is read from it. * marks the point of attachment. Orn(4R-OH,5R-OH) = O=C([C@H](C[C@@H](O)[C@@H](O)N[*:3])N[*:1])[*:2]; Tetradecanoyl(10R,12S-Me2) = CC[C@H](C)C[C@H](C)CCCCCCCCC(=O)*; hTyr(3S-OH,4S-OH) = N[C@H](C(=O)O)[C@H](O)[C@@H](O)c1ccc(O)cc1; Pro(3S-OH,4S-Me) = C[C@H]1CN[C@H](C(=O)O)[C@H]1O; X1 = CCCCCOc1ccc(-c2cc(-c3ccc(C(=O)*)cc3)no2)cc1; Gln(3R-OH) = NC(=O)C[C@@H](O)[C@H](N)C(=O)O; Pro(3S-OH) = O=C(O)[C@H]1NCC[C@@H]1O; Hyp = O=C(O)[C@@H]1C[C@@H](O)CN1

How the values were obtained:
[1] = Inhibition of caspofungin-resistant Candida albicans CLY-16996 1,3-beta-D-glucan synthase component FKS1/FKS1 S645F mutant using UDP[6,3H]-glucose as substrate after 60 mins by liquid scintillation counting analysis
Staphylococcus aureus = experiment: Antibacterial activity against methicillin-sensitive Staphylococcus aureus MB2865 assessed as growth inhibition after 24 hrs by NCCLS broth microdilution method; format: functional; settings: MB2865, 24 h, read-out: MIC100
Candida albicans [2] = experiment: Antifungal activity against wild type Candida albicans MY1055 assessed as growth inhibition after 24 hrs by NCCLS broth microdilution method; format: functional; settings: MY1055, 24 h; for MIC: read-out: MIC100
Beta-1,3-glucan synthase [3] = target: T1, Beta-1,3-glucan synthase (Candida albicans, UniProt O13383); experiment: Inhibition of wild type Candida albicans MY1055 1,3-beta-D-glucan synthase using UDP[6,3H]-glucose as substrate after 60 mins by liquid scintillation counting analysis
T1 sequence (O13383 whole entry): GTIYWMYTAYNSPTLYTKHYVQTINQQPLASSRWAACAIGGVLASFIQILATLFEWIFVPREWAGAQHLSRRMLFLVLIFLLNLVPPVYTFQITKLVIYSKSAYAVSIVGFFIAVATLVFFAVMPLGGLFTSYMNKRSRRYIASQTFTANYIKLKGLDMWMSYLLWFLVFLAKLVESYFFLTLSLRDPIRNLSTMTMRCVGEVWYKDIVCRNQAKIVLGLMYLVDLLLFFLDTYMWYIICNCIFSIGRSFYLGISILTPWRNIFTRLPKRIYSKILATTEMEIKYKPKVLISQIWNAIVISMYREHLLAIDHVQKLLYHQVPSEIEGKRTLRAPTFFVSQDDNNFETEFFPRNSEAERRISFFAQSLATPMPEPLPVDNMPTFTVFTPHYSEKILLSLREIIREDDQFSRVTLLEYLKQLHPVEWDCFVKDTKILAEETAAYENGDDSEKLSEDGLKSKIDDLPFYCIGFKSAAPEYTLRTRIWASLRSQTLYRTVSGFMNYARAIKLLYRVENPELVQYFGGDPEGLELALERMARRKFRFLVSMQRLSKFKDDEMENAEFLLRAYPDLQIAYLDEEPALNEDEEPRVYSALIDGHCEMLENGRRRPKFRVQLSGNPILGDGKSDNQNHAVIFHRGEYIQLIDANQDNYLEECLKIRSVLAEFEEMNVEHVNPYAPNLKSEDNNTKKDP

Candida parapsilosis = experiment: Antifungal activity against wild type Candida parapsilosis ATCC 22019 assessed as growth inhibition after 24 hrs by NCCLS broth microdilution method; format: functional; settings: Lodderomyces parapsilosis, ATCC 22019, 24 h; for MIC: read-out: MIC100
Candida albicans [4] = experiment: Antifungal activity against wild type Candida albicans MY1055 assessed as growth inhibition after 24 hrs by NCCLS broth microdilution method in presence of human serum; format: functional; settings: MY1055, 24 h; for MIC: read-out: MIC100
[5] = Inhibition of caspofungin-resistant Candida albicans CLY-16997 1,3-beta-D-glucan synthase component FKS1/FKS1 S645P mutant using UDP[6,3H]-glucose as substrate after 60 mins by liquid scintillation counting analysis
Candida albicans [6] = experiment: Antifungal activity against Candida albicans MY1055 infected in DBA/2 mouse assessed as reduction of log CFU in kidney administered 30 mins as ip tid post infection measured after 24 hrs; format: functional
Clavispora lusitaniae = experiment: Antifungal activity against wild type Candida lusitaniae MY1396 assessed as growth inhibition after 24 hrs by NCCLS broth microdilution method; format: functional; settings: MY1396, 24 h; for MIC: read-out: MIC100
Candida albicans [7] = experiment: Antifungal activity against wild type Candida albicans CAI4 assessed as growth inhibition after 24 hrs by NCCLS broth microdilution method; format: functional; settings: CAI4, 24 h; for MIC: read-out: MIC100
Candida albicans [8] = experiment: Antifungal activity against caspofungin-resistant Candida albicans CLY-16996 harboring 1,3-beta-D-glucan synthase component FKS1/FKS1 S645F mutant assessed as growth inhibition after 24 hrs by NCCLS broth microdilution method; format: functional; settings: CLY-16996, 24 h
Aspergillus fumigatus = experiment: Antifungal activity against Aspergillus fumigatus MF5668 caspofungin spontaneous resistance mutant assessed as growth inhibition after 24 hrs by NCCLS broth microdilution method; format: functional; settings: MF5668, 24 h; for minimal effective concentration: read-out: MEC
Nakaseomyces glabratus = experiment: Antifungal activity against wild type Candida glabrata MY1381 assessed as growth inhibition after 24 hrs by NCCLS broth microdilution method; format: functional; settings: MY1381, 24 h; for MIC: read-out: MIC100
Candida albicans [9] = experiment: Antifungal activity against Candida albicans NR3 assessed as growth inhibition after 24 hrs by NCCLS broth microdilution method; format: functional; settings: NR3, 24 h; for MIC: read-out: MIC100
[10] = test system: Meyerozyma guilliermondii; experiment: Antifungal activity against wild type Candida guilliermondii CLY308 assessed as growth inhibition after 24 hrs by NCCLS broth microdilution method; format: functional; settings: CLY308, 24 h; for MIC: read-out: MIC100
Cryptococcus neoformans = experiment: Antifungal activity against capsular wild type Cryptococcus neoformans MY2061 assessed as growth inhibition after 24 hrs by NCCLS broth microdilution method; format: functional; settings: MY2061, 24 h, read-out: MIC100
Candida albicans [11] = experiment: Antifungal activity against Candida albicans CAI4-R1 assessed as growth inhibition after 24 hrs by NCCLS broth microdilution method; format: functional; settings: CAI4-R1, 24 h; for MIC: read-out: MIC100
Pichia kudriavzevii = experiment: Antifungal activity against wild type Candida krusei CLY549 assessed as growth inhibition after 24 hrs by NCCLS broth microdilution method; format: functional; settings: CLY549, 24 h; for MIC: read-out: MIC100
Escherichia coli = experiment: Antibacterial activity against Escherichia coli ATCC 25922 assessed as growth inhibition after 24 hrs by NCCLS broth microdilution method; format: functional; settings: ATCC 25922, 24 h, read-out: MIC100
Beta-1,3-glucan synthase [12] = target: T1, Beta-1,3-glucan synthase; experiment: Inhibition of wild type Candida albicans 1,3-beta-D-glucan synthase using UDP[6,3H]-glucose as substrate after 60 mins by liquid scintillation counting analysis

CCCCCOc1ccc(-c2cc(-c3ccc(C(=O)N[C@H]4C[C@@H](O)[C@@H](O)NC(=O)[C@@H]5[C@@H](O)CCN5C(=O)[C@H]([C@H](O)CC(N)=O)NC(=O)[C@H]([C@H](O)[C@@H](O)c5ccc(O)cc5)NC(=O)[C@@H]5C[C@@H](O)CN5C(=O)[C@H]([C@@H](C)O)NC4=O)cc3)no2)cc1 (X1-[Orn(4R-OH,5R-OH)]T[Hyp][hTyr(3S-OH,4S-OH)][Gln(3R-OH)][Pro(3S-OH)]; lactam 1-C)
pIC50 [1]: 8.68 | MIC (Staphylococcus aureus): > 32 µg/mL | MIC80 (Candida albicans [2]): < 0.03 µg/mL | MIC (Candida albicans [2]): 0.125 µg/mL (≈ 0.108 µM) | pIC50 (Beta-1,3-glucan synthase [3]): 8.55 | MIC80 (Candida parapsilosis): 2 µg/mL (≈ 1.72 µM) | MIC (Candida parapsilosis): 32 µg/mL (≈ 27.6 µM) | MIC80 (Candida albicans [4]): 0.25 µg/mL | MIC (Candida albicans [4]): 1 µg/mL | pIC50 [5]: 8.62 | ED90 (Candida albicans [6]): 0.24 mg/kg/day | ED99 (Candida albicans [6]): 1.31 mg/kg/day | MIC80 (Clavispora lusitaniae): < 0.03 µg/mL | MIC (Clavispora lusitaniae): 0.125 µg/mL (≈ 0.108 µM) | MIC80 (Candida albicans [7]): < 0.03 µg/mL | MIC (Candida albicans [7]): 0.06 µg/mL (≈ 0.0517 µM) | MIC (Candida albicans [8]): 2 µg/mL (≈ 1.72 µM) | MIC80 (Aspergillus fumigatus): < 0.03 µg/mL | minimal effective concentration (Aspergillus fumigatus): > 32 µg/mL | MIC80 (Nakaseomyces glabratus): 0.25 µg/mL (≈ 0.215 µM) | MIC (Nakaseomyces glabratus): 0.5 µg/mL (≈ 0.431 µM) | MIC80 (Candida albicans [9]): 4 µg/mL (≈ 3.45 µM) | MIC (Candida albicans [9]): 8 µg/mL (≈ 6.9 µM) | MIC80 [10]: 1 µg/mL (≈ 0.862 µM) | MIC [10]: 2 µg/mL (≈ 1.72 µM) | MIC (Cryptococcus neoformans): > 32 µg/mL | MIC80 (Candida albicans [11]): 1 µg/mL (≈ 0.862 µM) | MIC (Candida albicans [11]): 4 µg/mL (≈ 3.45 µM) | MIC80 (Pichia kudriavzevii): 0.25 µg/mL (≈ 0.215 µM) | MIC (Pichia kudriavzevii): 2 µg/mL (≈ 1.72 µM) | MIC (Escherichia coli): > 32 µg/mL

CCCCCOc1ccc(-c2cc(-c3ccc(C(=O)N[C@H]4C[C@@H](O)[C@@H](O)NC(=O)[C@@H]5[C@@H](O)[C@@H](C)CN5C(=O)[C@H]([C@H](O)CC(N)=O)NC(=O)[C@H]([C@H](O)[C@@H](O)c5ccc(O)cc5)NC(=O)[C@@H]5C[C@@H](O)CN5C(=O)[C@H]([C@@H](C)O)NC4=O)cc3)no2)cc1 (X1-[Orn(4R-OH,5R-OH)]T[Hyp][hTyr(3S-OH,4S-OH)][Gln(3R-OH)][Pro(3S-OH,4S-Me)]; lactam 1-C)
pIC50 (Beta-1,3-glucan synthase [12]): 7.46 | MIC (Staphylococcus aureus): > 32 µg/mL | MIC80 (Candida albicans [2]): < 0.03 µg/mL | MIC (Candida albicans [2]): 0.06 µg/mL (≈ 0.0511 µM) | MIC80 (Candida parapsilosis): 2 µg/mL (≈ 1.7 µM) | MIC (Candida parapsilosis): 32 µg/mL (≈ 27.3 µM) | MIC80 (Candida albicans [4]): 0.25 µg/mL | MIC (Candida albicans [4]): 1 µg/mL | ED90 (Candida albicans [6]): 0.12 mg/kg/day | ED99 (Candida albicans [6]): 0.82 mg/kg/day | MIC80 (Clavispora lusitaniae): < 0.03 µg/mL | MIC (Clavispora lusitaniae): 0.125 µg/mL (≈ 0.106 µM) | MIC80 (Candida albicans [7]): < 0.03 µg/mL | MIC (Candida albicans [7]): 0.06 µg/mL (≈ 0.0511 µM) | MIC80 (Aspergillus fumigatus): < 0.03 µg/mL | minimal effective concentration (Aspergillus fumigatus): > 32 µg/mL | MIC80 (Nakaseomyces glabratus): 0.06 µg/mL (≈ 0.0511 µM) | MIC (Nakaseomyces glabratus): 0.25 µg/mL (≈ 0.213 µM) | MIC80 (Candida albicans [9]): 2 µg/mL (≈ 1.7 µM) | MIC (Candida albicans [9]): 4 µg/mL (≈ 3.41 µM) | MIC80 [10]: 0.5 µg/mL (≈ 0.426 µM) | MIC [10]: 2 µg/mL (≈ 1.7 µM) | MIC (Cryptococcus neoformans): > 32 µg/mL | MIC80 (Candida albicans [11]): 0.5 µg/mL (≈ 0.426 µM) | MIC (Candida albicans [11]): 2 µg/mL (≈ 1.7 µM) | MIC80 (Pichia kudriavzevii): 0.125 µg/mL (≈ 0.106 µM) | MIC (Pichia kudriavzevii): 1 µg/mL (≈ 0.852 µM) | MIC (Escherichia coli): > 32 µg/mL

CC[C@H](C)C[C@H](C)CCCCCCCCC(=O)N[C@H]1C[C@@H](O)[C@@H](O)NC(=O)[C@@H]2[C@@H](O)CCN2C(=O)[C@H]([C@H](O)CC(N)=O)NC(=O)[C@H]([C@H](O)[C@@H](O)c2ccc(O)cc2)NC(=O)[C@@H]2C[C@@H](O)CN2C(=O)[C@H]([C@@H](C)O)NC1=O ({Tetradecanoyl(10R,12S-Me2)}-[Orn(4R-OH,5R-OH)]T[Hyp][hTyr(3S-OH,4S-OH)][Gln(3R-OH)][Pro(3S-OH)]; lactam 1-C)
MIC (Staphylococcus aureus): > 32 µg/mL | MIC80 (Candida albicans [2]): 0.125 µg/mL (≈ 0.117 µM) | MIC (Candida albicans [2]): 0.5 µg/mL (≈ 0.469 µM) | MIC80 (Candida parapsilosis): 8 µg/mL (≈ 7.51 µM) | MIC (Candida parapsilosis): > 32 µg/mL | MIC80 (Candida albicans [4]): 16 µg/mL | MIC (Candida albicans [4]): 32 µg/mL | ED90 (Candida albicans [6]): 2.71 mg/kg/day | ED99 (Candida albicans [6]): 13 mg/kg/day | MIC80 (Clavispora lusitaniae): 1 µg/mL (≈ 0.939 µM) | MIC (Clavispora lusitaniae): 4 µg/mL (≈ 3.76 µM) | MIC80 (Candida albicans [7]): < 0.03 µg/mL | MIC (Candida albicans [7]): 0.5 µg/mL (≈ 0.469 µM) | MIC80 (Aspergillus fumigatus): 4 µg/mL (≈ 3.76 µM) | minimal effective concentration (Aspergillus fumigatus): > 32 µg/mL | MIC (Nakaseomyces glabratus): 4 µg/mL (≈ 3.76 µM) | MIC (Candida albicans [9]): > 32 µg/mL | MIC80 [10]: 4 µg/mL (≈ 3.76 µM) | MIC [10]: > 32 µg/mL | MIC (Cryptococcus neoformans): > 32 µg/mL | MIC80 (Candida albicans [11]): 16 µg/mL (≈ 15 µM) | MIC (Candida albicans [11]): 32 µg/mL (≈ 30 µM) | MIC80 (Pichia kudriavzevii): 8 µg/mL (≈ 7.51 µM) | MIC (Pichia kudriavzevii): 32 µg/mL (≈ 30 µM) | MIC (Escherichia coli): > 32 µg/mL
